Where only a bound is given, the exact number is not on record here.

Data set [1] deals with T1, Cytochrome P450 2C9 (Homo sapiens, UniProt P11712). Description: Inhibition of CYP2C9 in human liver microsomes using diclofenac as substrate preincubated for 20 mins with substrate prior to initiation of reaction with NADPH by HPLC analysis. The data set is classed as ADME. A general note: Microsomes from liver hold many membrane-bound enzymes, among them those of drug oxidation.

Another data set deals with CYP2C19 (Homo sapiens, UniProt P33261). In words: Inhibition of CYP2C19 in human liver microsomes using S-mephenytoin as substrate at 100 uM preincubated for 20 mins with substrate prior to initiation of reaction with NADPH by HPLC analysis. The data set is classed as ADME. The following applies: probe S-mephenytoin.
Data set [2] has as its target T2, Cytochrome P450 2B6 (Homo sapiens, UniProt P20813).
T2 sequence (P20813 whole entry): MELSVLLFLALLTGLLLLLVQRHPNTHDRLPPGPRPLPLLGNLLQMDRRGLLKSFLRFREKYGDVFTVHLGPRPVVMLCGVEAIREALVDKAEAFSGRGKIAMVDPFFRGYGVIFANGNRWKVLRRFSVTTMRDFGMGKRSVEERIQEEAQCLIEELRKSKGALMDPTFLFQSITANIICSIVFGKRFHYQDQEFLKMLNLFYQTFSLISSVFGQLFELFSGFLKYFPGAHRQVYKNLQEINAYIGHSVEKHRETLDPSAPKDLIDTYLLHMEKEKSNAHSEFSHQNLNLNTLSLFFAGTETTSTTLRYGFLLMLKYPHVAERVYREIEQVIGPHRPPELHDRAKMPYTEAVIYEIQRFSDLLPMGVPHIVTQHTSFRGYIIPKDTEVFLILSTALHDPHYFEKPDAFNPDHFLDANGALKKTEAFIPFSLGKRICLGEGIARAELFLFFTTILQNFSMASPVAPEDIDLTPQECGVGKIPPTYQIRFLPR
In words: Metabolism-dependent inhibition of CYP2B6 in human liver microsomes using bupropion as substrate preincubated for 20 mins with NADPH prior to initiation of reaction with probe substrate by HPLC analysis. The data set is classed as ADME.

Data set [3] concerns the target T1, Cytochrome P450 2C9. In words: Metabolism-dependent inhibition of CYP2C9 in human liver microsomes using diclofenac as substrate preincubated for 20 mins with NADPH prior to initiation of reaction with probe substrate by HPLC analysis. The data set is classed as ADME.
Data set [4] has as its target T3, Solute carrier family 22 member 2 (Homo sapiens, UniProt O15244). In words: Inhibition of human OCT2 expressed in MDCK2 cells using [14C]metformin as substrate by liquid scintillation counting analysis. The data set is classed as ADME, cell-based, MDCK-II.
The target in data set [5] is T3, Solute carrier family 22 member 2. Description: Inhibition of human OCT2 expressed in MDCK2 cells using [14C]metformin as substrate at 25 uM by liquid scintillation counting analysis. The data set is classed as ADME, cell-based. The following applies: mdck-ii.
The next data set addresses MDR1 (P-gp, ABCB1) (Homo sapiens, UniProt P08183). Description: Activity at human MDR1 expressed in MDCK2 cells assessed as basolateral to apical mass balance at 3 uM by liquid scintillation counting analysis. The data set is classed as ADME, cell-based, MDCK-II. The note with it: MDCK-MDR1, read-out: Activity.
The nature of data set [6]: In vitro passive membrane permeability across dog MDCK2 cells at 3 uM using fasted state-simulated intestinal fluid buffer at pH 7.4 on donor side and 1% human serum albumin at pH 7.4 on receiver side by liquid scintillation counting analysis. The data set is classed as ADME, cell-based, Canis lupus familiaris, MDCK-II. The following applies: MDCK, read-out: permeability.

Data set [7] deals with ATP-dependent translocase ABCB1 (Homo sapiens, UniProt P08183). Description: Inhibition of MDR1 (unknown origin) expressed in MDCK2 cells assessed as basolateral to apical transport of [3H]digoxin after 90 mins by liquid scintillation counting analysis. The data set is classed as ADME, cell-based, MDCK-II.
For data set [8], the target named is T2, Cytochrome P450 2B6. Description: Drug metabolism in supersomes expressing human recombinant CYP2B6 assessed as NADPH-fortified enzyme-mediated metabolite formation at 5 uM after 120 mins by radio HPLC analysis. The data set is classed as ADME. The following applies: 2 h.
Another data set addresses T4, Cytochrome P450 2C8 (Homo sapiens, UniProt P10632).
T4 sequence (P10632 whole entry): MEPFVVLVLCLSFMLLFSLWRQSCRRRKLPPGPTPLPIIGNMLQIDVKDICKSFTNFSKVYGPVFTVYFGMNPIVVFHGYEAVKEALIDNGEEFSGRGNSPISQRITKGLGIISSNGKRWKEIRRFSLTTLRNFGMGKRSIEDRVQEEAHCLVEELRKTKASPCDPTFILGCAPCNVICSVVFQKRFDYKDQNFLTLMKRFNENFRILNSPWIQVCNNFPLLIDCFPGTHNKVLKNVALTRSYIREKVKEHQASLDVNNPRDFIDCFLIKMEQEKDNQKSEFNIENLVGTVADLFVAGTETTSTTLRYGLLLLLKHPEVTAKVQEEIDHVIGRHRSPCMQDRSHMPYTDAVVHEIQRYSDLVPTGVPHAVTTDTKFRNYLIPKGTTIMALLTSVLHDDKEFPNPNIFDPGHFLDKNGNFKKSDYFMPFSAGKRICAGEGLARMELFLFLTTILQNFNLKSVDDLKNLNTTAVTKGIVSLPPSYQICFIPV
In words: Drug metabolism in supersomes expressing human recombinant CYP2C8 assessed as NADPH-fortified enzyme-mediated metabolite formation at 5 uM after 120 mins by radio HPLC analysis. The data set is classed as ADME. The note with it: 2 h.

Another data set addresses Cytochrome P450 2C19 (Homo sapiens, UniProt P33261). In words: Drug metabolism in supersomes expressing human recombinant CYP2C19 assessed as NADPH-fortified enzyme-mediated metabolite formation at 5 uM after 120 mins by radio HPLC analysis. The data set is classed as ADME. The following applies: 2 h.
Another data set addresses Cytochrome P450 2D6 (Homo sapiens, UniProt P10635). In words: Drug metabolism in supersomes expressing human recombinant CYP2D6 assessed as NADPH-fortified enzyme-mediated metabolite formation at 5 uM after 120 mins by radio HPLC analysis. The data set is classed as ADME. The note with it: 2 h.
The next data set has as its system Liver microsome. In words: Drug metabolism in UDPGA-fortified human liver microsomes assessed as DTG glucuronide metabolite ((2S,3S,4S,5R,6S)-6-((4R,12aS)-9-(2,4-difluorobenzylcarbamoyl)-4-methyl-6,8-dioxo-3,4,6,8,12,12a-hexahydro-2H-[1,3]oxazino[3,2-d]pyrido[1,2-a]pyrazin-7-yloxy)-3,4,5-trihydroxytetrahydro-2H-pyran-2-carboxylic acid) formation at 16 uM treated for 4 hrs by radio-HPLC analysis. The data set is classed as ADME.

In data set [9] the target is UDP-glucuronosyltransferase 1A4 (Homo sapiens, UniProt P22310). In words: Drug metabolism assessed as UDPGA-fortified human recombinant UGT1A4-mediated DTG glucuronide metabolite ((2S,3S,4S,5R,6S)-6-((4R,12aS)-9-(2,4-difluorobenzylcarbamoyl)-4-methyl-6,8-dioxo-3,4,6,8,12,12a-hexahydro-2H-[1,3]oxazino[3,2-d]pyrido[1,2-a]pyrazin-7-yloxy)-3,4,5-trihydroxytetrahydro-2H-pyran-2-carboxylic acid) formation at 16 uM after 120 mins by radio-HPLC analysis. The data set is classed as ADME. The note with it: recombinant enzyme.

In data set [10] the target is UDP-glucuronosyltransferase 2B7 (Homo sapiens, UniProt P16662). Description: Drug metabolism assessed as UDPGA-fortified human recombinant UGT2B7-mediated DTG glucuronide metabolite ((2S,3S,4S,5R,6S)-6-((4R,12aS)-9-(2,4-difluorobenzylcarbamoyl)-4-methyl-6,8-dioxo-3,4,6,8,12,12a-hexahydro-2H-[1,3]oxazino[3,2-d]pyrido[1,2-a]pyrazin-7-yloxy)-3,4,5-trihydroxytetrahydro-2H-pyran-2-carboxylic acid) formation after 120 mins by radio-HPLC analysis. The data set is classed as ADME. The note with it: recombinant enzyme.

T1 sequence (P11712 whole entry): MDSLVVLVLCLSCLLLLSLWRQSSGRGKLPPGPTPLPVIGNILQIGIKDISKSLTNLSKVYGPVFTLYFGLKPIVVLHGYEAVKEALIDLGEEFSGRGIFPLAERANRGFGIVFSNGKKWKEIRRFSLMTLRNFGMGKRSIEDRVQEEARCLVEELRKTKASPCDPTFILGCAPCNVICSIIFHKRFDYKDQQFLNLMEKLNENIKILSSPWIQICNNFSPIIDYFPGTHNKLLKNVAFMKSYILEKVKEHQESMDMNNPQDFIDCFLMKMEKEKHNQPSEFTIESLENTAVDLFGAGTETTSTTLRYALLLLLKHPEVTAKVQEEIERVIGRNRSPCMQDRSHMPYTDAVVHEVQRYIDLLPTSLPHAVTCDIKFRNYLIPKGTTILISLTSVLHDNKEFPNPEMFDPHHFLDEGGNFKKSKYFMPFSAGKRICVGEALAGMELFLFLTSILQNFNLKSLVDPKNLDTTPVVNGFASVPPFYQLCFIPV
T3 sequence (O15244 whole entry): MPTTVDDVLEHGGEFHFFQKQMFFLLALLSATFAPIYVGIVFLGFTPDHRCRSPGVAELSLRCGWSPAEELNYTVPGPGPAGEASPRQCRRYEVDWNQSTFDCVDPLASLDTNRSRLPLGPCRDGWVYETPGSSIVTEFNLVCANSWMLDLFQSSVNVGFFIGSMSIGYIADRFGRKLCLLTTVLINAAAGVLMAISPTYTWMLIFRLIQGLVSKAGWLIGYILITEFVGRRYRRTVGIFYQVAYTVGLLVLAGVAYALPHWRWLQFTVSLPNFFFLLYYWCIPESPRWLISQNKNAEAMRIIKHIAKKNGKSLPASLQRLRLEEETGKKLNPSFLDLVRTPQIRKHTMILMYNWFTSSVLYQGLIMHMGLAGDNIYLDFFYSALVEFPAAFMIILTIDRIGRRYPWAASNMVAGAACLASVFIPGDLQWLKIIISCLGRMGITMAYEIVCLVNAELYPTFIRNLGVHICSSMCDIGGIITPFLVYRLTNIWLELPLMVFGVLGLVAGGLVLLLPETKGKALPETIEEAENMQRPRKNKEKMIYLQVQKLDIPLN
Chain of MDR1 (P-gp, ABCB1) (P08183 whole entry): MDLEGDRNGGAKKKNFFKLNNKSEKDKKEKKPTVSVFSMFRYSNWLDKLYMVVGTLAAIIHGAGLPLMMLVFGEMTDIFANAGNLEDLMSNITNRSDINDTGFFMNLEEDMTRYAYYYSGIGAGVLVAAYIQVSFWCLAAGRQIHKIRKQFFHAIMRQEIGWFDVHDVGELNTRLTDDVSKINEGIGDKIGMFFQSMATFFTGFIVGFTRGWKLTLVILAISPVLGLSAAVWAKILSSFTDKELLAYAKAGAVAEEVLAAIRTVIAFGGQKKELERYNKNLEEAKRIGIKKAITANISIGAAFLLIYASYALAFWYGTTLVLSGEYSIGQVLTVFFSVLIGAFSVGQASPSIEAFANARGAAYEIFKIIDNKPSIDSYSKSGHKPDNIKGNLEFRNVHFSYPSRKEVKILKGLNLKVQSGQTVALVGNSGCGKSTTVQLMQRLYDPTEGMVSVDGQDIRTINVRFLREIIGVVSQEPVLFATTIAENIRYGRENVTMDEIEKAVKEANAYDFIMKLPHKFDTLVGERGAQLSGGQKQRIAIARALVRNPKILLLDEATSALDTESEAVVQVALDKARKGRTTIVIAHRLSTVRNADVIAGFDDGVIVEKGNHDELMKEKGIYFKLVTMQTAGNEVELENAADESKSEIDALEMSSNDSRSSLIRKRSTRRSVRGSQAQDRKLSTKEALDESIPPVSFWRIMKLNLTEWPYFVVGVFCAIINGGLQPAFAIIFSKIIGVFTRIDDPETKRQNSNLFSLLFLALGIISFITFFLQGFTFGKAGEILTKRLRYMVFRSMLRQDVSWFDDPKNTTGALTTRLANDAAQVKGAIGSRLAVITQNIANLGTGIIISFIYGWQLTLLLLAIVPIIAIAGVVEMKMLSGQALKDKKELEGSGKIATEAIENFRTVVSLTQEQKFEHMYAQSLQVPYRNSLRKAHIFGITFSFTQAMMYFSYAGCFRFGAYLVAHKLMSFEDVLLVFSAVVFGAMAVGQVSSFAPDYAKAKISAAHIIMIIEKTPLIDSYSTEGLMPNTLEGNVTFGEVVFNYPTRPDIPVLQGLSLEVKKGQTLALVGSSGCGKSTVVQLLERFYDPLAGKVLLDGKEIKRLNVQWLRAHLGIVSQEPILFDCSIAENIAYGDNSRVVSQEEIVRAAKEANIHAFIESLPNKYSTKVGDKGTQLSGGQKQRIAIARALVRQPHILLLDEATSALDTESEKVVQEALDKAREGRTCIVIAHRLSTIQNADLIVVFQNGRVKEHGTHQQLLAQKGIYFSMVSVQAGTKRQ
Chain of ATP-dependent translocase ABCB1 (P08183 whole entry): as above
Chain of Cytochrome P450 2C19 (P33261 whole entry): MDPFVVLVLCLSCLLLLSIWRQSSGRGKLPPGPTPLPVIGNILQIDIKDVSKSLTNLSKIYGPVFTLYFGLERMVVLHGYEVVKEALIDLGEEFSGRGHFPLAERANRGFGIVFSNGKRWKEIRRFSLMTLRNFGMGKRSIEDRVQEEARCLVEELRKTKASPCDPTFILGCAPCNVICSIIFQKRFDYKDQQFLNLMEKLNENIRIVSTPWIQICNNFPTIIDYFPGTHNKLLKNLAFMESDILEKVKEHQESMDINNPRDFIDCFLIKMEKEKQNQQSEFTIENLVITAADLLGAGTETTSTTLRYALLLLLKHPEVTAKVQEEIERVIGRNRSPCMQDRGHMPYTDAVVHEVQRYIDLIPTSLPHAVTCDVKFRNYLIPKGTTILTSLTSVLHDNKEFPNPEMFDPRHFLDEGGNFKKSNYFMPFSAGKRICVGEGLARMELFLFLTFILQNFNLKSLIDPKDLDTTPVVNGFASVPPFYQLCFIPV
Chain of CYP2C19 (P33261 whole entry): as above

For the molecule `C[C@@H]1CCO[C@H]2Cn3cc(C(=O)NCc4ccc(F)cc4F)c(=O)c(O)c3C(=O)N12` [DOLUTEGRAVIR], the IC50 was above 100 µM at Cytochrome P450 2C9 [1]; above 100 µM on Cytochrome P450 2B6 [2]; above 100 µM against Cytochrome P450 2C9 [3]; 1.9 µM in data set [4]; above 100 µM in data set [7]. This molecule showed an inhibition at 100 µM against CYP2C19 of 20%. The “inhibition (INH)” value in data set [5] is on record as 91%. The recovery at 3 µM at MDR1 (P-gp, ABCB1) is 84%. Besides, in [6], the Papp at 3 µM was 25.2 ×10⁻⁶ cm/s. In addition, the Drug metabolism entry on Cytochrome P450 2B6 [8] is on record as “metabolite_not_detected”; on Cytochrome P450 2C8, “metabolite_not_detected”; on Cytochrome P450 2C19, “metabolite_not_detected”; on Cytochrome P450 2D6, “metabolite_not_detected”; with Liver microsome, “metabolite_detected”; in [9], “metabolite_not_detected”. The Drug metabolism entry in data set [10] is “metabolite_not_detected”.

For orientation: IC50 means the concentration at which inhibition is half-maximal. In general, inhibition refers to how much of the control response was suppressed. Read a high inhibition as strong suppression.

Source of the values: ChEMBL document CHEMBL3526034 (Drug Metab Dispos, 2013).
